Reference: patent US20250281509A1, “SEQUENTIAL HORMONE THERAPY TO IMPROVE SURVIVAL AND ENHANCE RESPONSE TO IMMUNE THERAPY IN MEN WITH PROSTATE CANCER” (The Johns Hopkins University, priority 2021, published 2025)
Several values for one entry are separate records, joined by “and”; a condition that tells them apart may be missing. Equal entries are not always repeated. Where two headings read alike, the source gives them in different places.

Tests used:
[1] = tested on: CRPC; experiment: Pilot study of BAT plus etoposide in men with CRPC; format: in vivo, human
Method: Based on the preclinical results and potential mechanisms for growth inhibition that include androgen-induced double strand breaks and stabilization of AR preventing relicensing, a pilot study was conducted to evaluate the efficacy and safety of pharmacologic doses of testosterone to produce high dose testosterone levels in conjunction with oral etoposide in chronically castrated men with rising PSA and CRPC, FIG. 4A. Patients who had been continuously castrate for more than one year with minimal metastatic disease burden (≤5 total bone metastases and ≤10 total sites of metastases) and/or rising PSA were eligible, FIG. 4B. To achieve rapid cycling between high dose and near castrate serum testosterone (i.e., BAT) patients received intramuscular injection of 400 mg testosterone cypionate every 28 days. For the first 3 cycles of therapy patients received BAT plus oral etoposide 100 mg po/day days 1-14 of a 28-day cycle. After 3 cycles PSA response and objective response were assessed. Those patients with a PSA that was declining from peak levels and no objective evidence of disease progression or worsening pain were continued on therapy. Given the toxicity associated with etoposide and the lack of clinical response in an earlier trial, Hussain et al., 1994, patients who responding after 3 cycles of testosterone plus etoposide were continued on testosterone alone based on protocol amendment.

[2] = tested on: ferritin; experiment: Ferritin level by western blot; format: cell-based, human; conditions: LNCaP cells, 10 μM with 10 nM R1881
Method: Cell lysates were prepared either in 1× denaturing lysis buffer (Cell Signaling #9803) or non-denaturing lysis buffer (50 mM HEPES pH 7.4, 150 mM NaCl, 5 mM EDTA, 10% glycerol, 1% Nonidet P-40, and supplemented with phosphatase and protease inhibitors). For denaturing gels, lysates were mixed with Laemmli buffer containing β-mercaptoethanol, boiled for 5 mins and stored at −80° C. until use. Native lysates were mixed with native loading buffer (BioRad), and semi-native lysates were mixed with Laemmli buffer without beta-mercaptoethanol and stored at −80° C. without boiling. Native gels were resolved as described previously, Robitaille et al., 2016; denaturing and semi-native gels were resolved on 4-15% precast polyacrylamide gels (BioRad) followed by transfer to PVDF membrane. Membranes were blocked in 5% nonfat milk in wash buffer (Tris-buffered saline+0.1% Tween-20). After blocking, immunoblotting was performed with primary antibodies overnight at 4° C., followed by incubation with HRP-conjugated secondary antibodies for 1 h at room temperature. Blots were analyzed using the chemiluminescence method. Blots were developed using ECL Western blot detection reagent (GE Healthcare) for highly expressed proteins and Super Signal West Femto (Thermo Fisher) reagent for low expression proteins. Each experiment was repeated at least two to three times.

[3] = tested on: mCPRC; conditions: 258 patients previously treated with docetaxel and one or more hormonal therapies; cited from earlier work
[4] = tested on: LNCaP; experiment: Cell death, trypan blue exclusion assay; format: cell-based, human; conditions: ferrostatin-1 in combination with R1881
Method: Cells were stained with 0.4% trypan blue (Sigma) and incubated for 2-3 min at room temperature to allow dead cells to take up the blue stain. Cell viability was measured using an automated cell counter, Cellometer, (Nexcelom). Each experiment was repeated at least three times. Dead cells were calculated from subtracting the percentage of viable cells from 100. Mean percentage of dead cells was plotted on histograms.

[5] = tested on: CRPC; experiment: Post hoc analysis of PSA response to subsequent hormonal therapies post-BAT (pilot study); format: in vivo, human; conditions: for patients with a PSA decline on second line therapy: after return to castrate testosterone levels post-BAT; for Maximum PSA decline upon secondary HT initiation (%): per subject, secondary HT received post-study after return to castrate T-levels post-BAT; for PSA decline upon re-challenge: subjects who had previously progressed on the same agent
Method: As part of the aforementioned pilot study, a post hoc exploratory analysis on the effect of BAT on subsequent hormonal therapies was performed. […] All of the patients had received at least one anti-androgen prior to starting the study, Table 2. PSA response to secondary hormonal therapy after return to castrate T-levels post-BAT.

[6] = tested on: CRPC; experiment: RESTORE Phase II study (NCT02090114); format: in vivo, human; conditions: re-challenge with the agent patients progressed on before BAT
From the text: The RESTORE study (NCT02090114) was an NIH sponsored Phase II study designed to assess the safety and efficacy of BAT in men (n=30 per cohort) with CRPC progressing on enzalutamide (Cohort A) or abiraterone (Cohort B), FIG. 6A. Shah et al., 2004. The primary endpoint of the first part of the study was to assess PSA response to BAT. Secondary endpoints included objective response, safety, and quality of life. The second part of the study was to determine in BAT could re-sensitize patients to repeat exposure to second line therapy that patients were progressing on prior to receiving BAT. Thus, patients progressing on enzalutamide were re-exposed to enzalutamide after BAT and similarly for abiraterone. Both arms of this study met the primary endpoint. PSA50 Response to BAT was 30% in patient's post-enzalutamide and 18% post-abiraterone, FIG. 6B. Shah et al., 2004. […] Overall duration of response to BAT and duration of response to re-exposure was longer in the post-enzalutamide vs. post-abiraterone cohort. The PSA50 response to re-exposure to enzalutamide was 71% vs. only 21% for patients re-exposed to abiraterone, FIG. 6B. Shah et al., 2004. A third cohort was later added (Cohort C) for men progressing on ADT alone. Overall, 90 men were treated on this study over a 4-year period (2014-2018).

[7] = tested on: metastatic castration-resistant prostate cancer; conditions: cited from earlier work
[8] = tested on: early CRPC; conditions: cited from earlier work
[9] = cited from earlier work
[10] = tested on: CRPC; conditions: cited from earlier work
[11] = tested on: LNCaP/A-xenografts; experiment: LNCaP xenografts in castrated mice with testosterone implants; format: in vivo
From the text: FIG. 3A and FIG. 3B show castrated NOG mice inoculated with LNCaP/A-cells were either exposed to BAT therapy (via an implanted testosterone filled capsule that was placed and removed at two-week intervals) or left in a permanently castrate state (diamond versus box). (FIG. 3A) Evaluation of indicated parameters in LNCaP/A-cells growing in castrate mice vs. castrate mice supplemented with subcutaneous testosterone-filled silastic implants; (FIG. 3B) Immunohistochemical staining for AR in harvested LNCaP/A-xenografts growing in castrate vs. castrate+T-pelleted mice. Blue arrows indicate mitotic figures;
A mechanism for growth inhibition by testosterone in CRPC cells has been recently explored. Beer et al., 2014; Litvinov et al., 2006; Vander Griend et al., 2007. These studies document that the increase in AR expression observed in these cells in the low testosterone environment creates a unique therapeutic vulnerability to selectively kill CRPCs. This observation is based on the fact that AR is involved in DNA relicensing and DNA replication AR must degraded each cell cycle for proper relicensing to occur. Overstabilization of the increased levels of AR observed in CRPC with high dose testosterone prevents complete degradation of AR via the proteasome during mitosis. Beer et al., 2014; Litvinov et al., 2006; Vander Griend et al., 2007. […] Beer et al., 2014. […] In xenografts treated with high dose testosterone, however, the Cell Death Index was approximately 3-fold higher. Beer et al., 2014. More strikingly, the percent of cells staining positive for AR in mitosis was approximately 10-fold higher in cells exposed to high dose testosterone vs. castrate only animals, FIG. 3b.

[12] = tested on: advanced prostatic carcinoma; conditions: cited from earlier work

## C[C@]12CC[C@H]3[C@@H](CCC4=CC(=O)CC[C@@]43C)[C@@H]1CC[C@@H]2OC(=O)CCC1CCCC1 [testosterone cypionate]
[1]; 400 mg IM every 28 days, oral etoposide in first 3 cycles
  patients with a decline in PSA from baseline value: Seven of fourteen
[1]; completing 3 months of therapy
  patients developing new bone metastases: None of the 14 patients
[1]; seven patients with PSA decline, range 95 to 454 days
  median time to PSA progression: 221 days
[1]; ten evaluable subjects
  complete response (CR): 10%
  partial responses (PRs): 40%
  progressive disease (PD), RECIST-evaluable soft tissue metastases: 20%
[1]; ten evaluable subjects, median follow up 91 days
  stable disease: 30%

## CCN(CCO)CCCC(C)Nc1ccnc2cc(Cl)ccc12 (centres unmarked) [hydroxychloroquine]
[2]
  degradation of ferritin by SupraT: prevented the degradation of ferritin by SupraT

## Pembrolizumab: anti-PD1/PDL1 antibody
[3]
  Objective response: < 5%

## CCOC(=O)c1ccc(NC2CCCCC2)c(N)c1 [ferrostatin-1]
[4]
  SupraT induced cell death: abrogated cell death

## CC(=O)O[C@H]1CC[C@@]2(C)C(=CC[C@@H]3[C@@H]2CC[C@]2(C)C(c4cccnc4)=CC[C@@H]32)C1 [abiraterone, abiraterone acetate]
[5]
  patients with a PSA decline on second line therapy: 4/4
  Maximum PSA decline upon secondary HT initiation (%): −94.2% and −92.7% and −88.1% and −63.8%
[5]; post-BAT
  patients with >50% PSA decline on second line therapy: Four of 4
[6]
  PSA50 response to re-exposure post-BAT: 21%
[7]; AR-V7-negative patients
  PFS (median), clinical/radiographic: not reached
  PSA response rate: 68.0%
  PSA-PFS (median): not reached
[7]; AR-V7-positive patients
  PFS (median), clinical/radiographic: 2.3 months
  PSA response rate: 0%
  PSA-PFS (median): 1.3 months

## CC(O)(CS(=O)(=O)c1ccc(F)cc1)C(=O)Nc1ccc(C#N)c(C(F)(F)F)c1 (centres unmarked) [bicalutamide]
[5]
  patients with a PSA decline on second line therapy: 1/1
  Maximum PSA decline upon secondary HT initiation (%): −30.8%
  PSA decline upon re-challenge: 30.9%

## C[C@]12CC[C@H]3[C@@H](CCC4=CC(=O)CC[C@@]43C)[C@@H]1CC[C@@H]2O [transdermal testosterone, testosterone]
[8]; 15 men, 2.5-7.5 mg/day
  patients with a decrease in PSA: 20%
[8]; in vivo
  largest decrease in PSA: 43%
  toxicities: no grade 3 or 4 toxicities were observed with the exception of one person who was taken off study at week 53 for grade 4 cardiac toxicity
[9]; 2.5 mg/day transdermal
  median concentration of testosterone: 305 ng/dL
[9]; 5.0 mg/day transdermal
  median concentration of testosterone: 308 ng/dL
[9]; 7.5 mg/day transdermal
  median concentration of testosterone: 297 ng/dL
[10]; 7.5 mg/day, 12 patients
  toxicities: no grade 3 or 4 toxicities and no pain flares
[10]; 7.5 mg/day
  objective responses: No objective responses
[10]; of 12 patients
  patients with >50% PSA decline: one
  patients with at least 20% PSA declines: Four

## CC1(C)NC(=O)N(c2ccc([N+](=O)[O-])c(C(F)(F)F)c2)C1=O [nilutamide]
[5]
  patients with a PSA decline on second line therapy: 1/1
  Maximum PSA decline upon secondary HT initiation (%): −44.3%
  PSA decline upon re-challenge: 44.3%

## C[C@]12CC[C@H]3[C@@H](CCC4=CC(=O)CC[C@@]43C)[C@@H]1CC[C@@H]2O [testosterone]
[11]; high dose testosterone vs castrate only
  Cell Death Index, increase vs castrate: approximately 3 fold
[11]; high dose testosterone vs castrate only animals
  percent of cells staining positive for AR in mitosis, increase vs castrate: approximately 10 fold
[11]; testosterone implants, high dose serum T-levels vs castrate only
  xenograft growth: significant growth inhibition
[12]; long-term castrate group, testosterone for at least one month
  patients with subjective improvement: 4 of 5
[12]; longer course of testosterone
  men with acid phosphatase decline: 2/5
